Measurements reported in patent US8871767B2, “2-arylimidazo[1,2-B]pyridazine, 2-phenylimidazo[1,2-A]pyridine, and 2-phenylimidazo[1,2-A]pyrazine derivatives” (Hengrui (USA) Ltd., priority 2010, dated 2014).
Where two headings read alike, the source gives them in different places.

Tests used:
[1] = test system: Hedgehog pathway activation on 10T1/2/Smo#3 cells (C3H10T1/2 cells transfected with human Smoothened receptor); assay: Hedgehog pathway activation on 10T1/2/Smo#3 cells measured by ALP activity; type: cell-based; conditions: Mus musculus, C3H 10T1/2, 10T1/2/Smo#3 cells
Description: Hedgehog conditioned media was obtained by transfecting 293H cells with the full length gene encoding human Sonic Hedgehog (hShh) inserted into the pCMV6 expression vector, which contains a neomycin selectable marker and expresses the protein of interest with a C-terminal FLAG affinity tag. After selection in G418 containing media, conditioned media from Hedgehog expressing clones were tested for the ability to activate the hedgehog-responsive GLi-luciferase reporter in the Shh Light II cell line obtained by license from John Hopkins University (Taipale J, et al. Effects of oncogenic mutations in Smoothened and Patched can be reversed by cyclopamine. Nature 406: 1005-1009, 2000).
C3H10T1/2 cells were transfected with a pCMV expression vector containing the full length gene sequence encoding the human Smoothened receptor. Pooled cells, designated 10T1/2/Smo#3, growing in G418 selection media responded to activation by 10-20% conditioned hShh media with an approximate 5-10 fold increase in alkaline phosphaste (ALP) activity over untransfected parent C3H10T1/2 cells as measured by the conversion of the free acid of 4-methylumbelliferyl phosphate to a fluorescent product.
A test compound library was screened against hShh and 500 nM SAG (a direct agonist of the Smoothened receptor) activated 10T1/2/Smo#3 cells and Shh Light II reporter cells for the ability to block Hedgehog pathway activation. Concurrently, cell viability was measured by utilizing Celltiter-Blue® (Promega, Madison Wis.) viability assay. Active compounds were defined as those that inhibited Hedgehog signaling by greater than 50% with no concurrent loss in cell viability.
Their inhibitory activity against Hedgehog pathway activation on 10T1/2/Smo#3 cells as measured by ALP activity and Shh Light II reporter cells as measured by luciferase activity is shown in Table 1 below. In Table 1, +++ stands for an IC50 value that is less than 0.3 μM, ++ between 0.3 and 3 μM, + between 3 and 30 μM.
Additional data for compounds of the invention is shown below in Table 2. Their inhibitory activities against Hedgehog pathway activation are shown as IC50 values in μM on 10T1/2/Smo#3 cells as measured by ALP activity, or on Shh Light II reporter cells as measured by luciferase activity (hShh activation).

[2] = test system: Hedgehog pathway activation (GLi-luciferase reporter) in Shh Light II reporter cells; assay: Hedgehog pathway activation on Shh Light II reporter cells measured by luciferase activity; type: cell-based; conditions: Mus musculus, Shh Light II
Procedure, shortened: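 Shh Light II reporter cells carrying a hedgehog-responsive GLi-luciferase reporter were stimulated either with 500 nM SAG, a direct Smoothened agonist, or with conditioned media containing human Sonic Hedgehog (hShh). Test compounds were evaluated for blocking this pathway activation, quantified by luciferase activity. Cell viability was monitored in parallel with the Celltiter-Blue® assay.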

[3] = measured by ALP activity, read-out: ALP (IC50, inhibition of Hedgehog pathway activation)
[4] = hShh activation, read-out: Shh (IC50, inhibition of Hedgehog pathway activation)
[5] = hShh activation, ALP activity, read-out: 10T1/2/Smo#3 ALP activity (hShh Activation)
[6] = SAG activation (500 nM SAG), read-out: Shh Light II luciferase activity (SAG activation)
[7] = hShh activation, read-out: Shh Light II luciferase activity (hShh activation)

IC50 [1, 3] [nM] | IC50 [2, 4] [nM] | IC50 [1, 5] [nM] | IC50 [2, 6] [nM] | IC50 [2, 7] [nM] | Compound
> 10000 | 9650 | – | – | – | COc1ccc2nc(-c3cc(NC(=O)C4CC4)ccc3Cl)cn2n1 [Example 116, N-(4-chloro-3-(6-methoxyimidazo[1,2-b]pyridazin-2-yl)phenyl)cyclopropanecarboxamide]
6740 | 2800 | 3000 to 30000 | 3000 to 30000 | 3000 to 30000 | COc1ccc2nc(-c3cc(NC(=O)CC(C)(C)C)ccc3Cl)cn2n1 [Example 117, N-(4-chloro-3-(6-methoxyimidazo[1,2-b]pyridazin-2-yl)phenyl)-3,3-dimethylbutanamide]
1200 | 613 | – | – | – | Cc1ccc(-c2cn3nc(Cl)ccc3n2)cc1NC(=O)C(C)(C)C [Example 118, N-(5-(6-chloroimidazo[1,2-b]pyridazin-2-yl)-2-methylphenyl)pivalamide]
4540 | 5650 | 3000 to 30000 | 3000 to 30000 | 3000 to 30000 | COc1ccc2nc(-c3ccc(Cl)c(NC(=O)C(C)(C)C(F)(F)F)c3)cn2n1 [Example 119, N-(2-chloro-5-(6-methoxyimidazo[1,2-b]pyridazin-2-yl)phenyl)-3,3,3-trifluoro-2,2-dimethylpropanamide]
6280 | > 10000 | – | – | – | COc1ccc2nc(-c3ccc(Cl)c(NC(=O)CC(C)C(F)(F)F)c3)cn2n1 (stereo not shown) [Example 120, N-(2-chloro-5-(6-methoxyimidazo[1,2-b]pyridazin-2-yl)phenyl)-4,4,4-trifluoro-3-methylbutanamide]
1870 | 2000 | 300 to 3000 | 3000 to 30000 | 300 to 3000 | COc1ccc2nc(-c3ccc(C)c(NC(=O)C(C)(C)C)c3)c(C)n2n1 [Example 121, N-(5-(6-methoxy-3-methylimidazo[1,2-b]pyridazin-2-yl)-2-methylphenyl)pivalamide]
1940 | 3040 | – | – | – | Cc1ccc(-c2cn3nc(Cl)ccc3n2)cc1NC(=O)C(C)(C)C(F)(F)F [Example 122, N-(5-(6-chloroimidazo[1,2-b]pyridazin-2-yl)-2-methylphenyl)-3,3,3-trifluoro-2,2-dimethylpropanamide]
488 | 712 | 300 to 3000 | 300 to 3000 | 300 to 3000 | Cc1ccc(-c2cn3nc(N4CCN(Cc5ccc(F)cc5)CC4)ccc3n2)cc1NC(=O)C(C)(C)C [Example 123, N-(5-(6-(4-(4-fluorobenzyl)piperazin-1-yl)imidazo[1,2-b]pyridazin-2-yl)-2-methylphenyl)pivalamide]
604 | 895 | 300 to 3000 | 300 to 3000 | 300 to 3000 | CCCCSc1ccc2nc(-c3ccc(C)c(NC(=O)C(C)(C)C)c3)cn2n1 [Example 124, N-(5-(6-(butylthio)imidazo[1,2-b]pyridazin-2-yl)-2-methylphenyl)pivalamide]
1250 | 435 | – | – | – | COc1ccc2nc(-c3ccc(C(F)(F)F)c(NC(=O)C(C)(C)C)c3)cn2n1 [Example 125, N-(5-(6-methoxyimidazo[1,2-b]pyridazin-2-yl)-2-(trifluoromethyl)phenyl)pivalamide]
5570 | 7720 | – | – | – | CC(C)(C)C(=O)Nc1cc(-c2cn3nc(Cl)ccc3n2)ccc1C(F)(F)F [Example 126, N-(5-(6-chloroimidazo[1,2-b]pyridazin-2-yl)-2-(trifluoromethyl)phenyl)pivalamide]
110 | 4970 | < 300 | 300 to 3000 | 300 to 3000 | Cc1ccc(-c2cn3nc(C4CC4)ccc3n2)cc1NC(=O)C(C)(C)C [Example 127, N-(5-(6-cyclopropylimidazo[1,2-b]pyridazin-2-yl)-2-methylphenyl)pivalamide]
422 | > 10000 | 300 to 3000 | 3000 to 30000 | 3000 to 30000 | Cc1ccc(-c2cn3nc(N4CCOCC4)ccc3n2)cc1NC(=O)C(C)(C)C [Example 128, N-(2-methyl-5-(6-morpholinoimidazo[1,2-b]pyridazin-2-yl)phenyl)pivalamide]
789 | 1770 | – | – | – | Cc1ccc(-c2cn3nc(SCc4ccccc4)ccc3n2)cc1NC(=O)C(C)(C)C [Example 129, N-(5-(6-(benzylthio)imidazo[1,2-b]pyridazin-2-yl)-2-methylphenyl)pivalamide]
526 | 898 | 300 to 3000 | < 300 | 300 to 3000 | CCCCS(=O)(=O)c1ccc2nc(-c3ccc(C)c(NC(=O)C(C)(C)C)c3)cn2n1 [Example 130, N-(5-(6-(butylsulfonyl)imidazo[1,2-b]pyridazin-2-yl)-2-methylphenyl)pivalamide]
8280 | 1450 | – | – | – | Cc1cc(Cl)c(-c2cn3nc(Cl)ccc3n2)cc1NC(=O)C(C)(C)C [Example 131, N-(4-chloro-5-(6-chloroimidazo[1,2-b]pyridazin-2-yl)-2-methylphenyl)pivalamide]
> 10000 | 1490 | – | – | – | COc1ccc2nc(-c3cc(NC(=O)C(C)(C)C)c(C)cc3Cl)cn2n1 [Example 132, N-(4-chloro-5-(6-methoxyimidazo[1,2-b]pyridazin-2-yl)-2-methylphenyl)pivalamide]
849 | 487 | – | – | – | CC(C)(C)C(=O)Nc1cc(-c2cn3nc(C4CCCC4)ccc3n2)ccc1C(F)(F)F [Example 133, N-(5-(6-cyclopentylimidazo[1,2-b]pyridazin-2-yl)-2-(trifluoromethyl)phenyl)pivalamide]
232 | 926 | < 300 | 300 to 3000 | 300 to 3000 | Cc1c(-c2ccccc2)nc2ccc(N3CCN(Cc4ccc(F)cc4)CC3)nn12 [Example 134, 6-(4-(4-fluorobenzyl)piperazin-1-yl)-3-methyl-2-phenylimidazo[1,2-b]pyridazine]
5230 | 1250 | – | – | – | CSc1ccc2nc(-c3ccc(C(F)(F)F)c(NC(=O)C(C)(C)C)c3)cn2n1 [Example 135, N-(5-(6-(methylthio)imidazo[1,2-b]pyridazin-2-yl)-2-(trifluoromethyl)phenyl)pivalamide]
452 | 158 | – | – | – | CCOc1ccc2nc(-c3ccc(C(F)(F)F)c(NC(=O)C(C)(C)C)c3)cn2n1 [Example 136, N-(5-(6-ethoxyimidazo[1,2-b]pyridazin-2-yl)-2-(trifluoromethyl)phenyl)pivalamide]
995 | 623 | 300 to 3000 | 300 to 3000 | 300 to 3000 | CNc1ccc2nc(-c3ccc(C(F)(F)F)c(NC(=O)C(C)(C)C)c3)cn2n1 [Example 137, N-(5-(6-(methylamino)imidazo[1,2-b]pyridazin-2-yl)-2-(trifluoromethyl)phenyl)pivalamide]
2170 | 3450 | – | – | – | CN(C)c1ccc2nc(-c3ccc(C(F)(F)F)c(NC(=O)C(C)(C)C)c3)cn2n1 [Example 138, N-(5-(6-(dimethylamino)imidazo[1,2-b]pyridazin-2-yl)-2-(trifluoromethyl)phenyl)pivalamide]
451 | 186 | – | – | – | CC(C)(C)C(=O)Nc1cc(-c2cn3nc(C4CC4)ccc3n2)ccc1C(F)(F)F [Example 139, N-(5-(6-cyclopropylimidazo[1,2-b]pyridazin-2-yl)-2-(trifluoromethyl)phenyl)pivalamide]
314 | 721 | – | – | – | CC(C)c1ccc2nc(-c3ccc(C(F)(F)F)c(NC(=O)C(C)(C)C)c3)cn2n1 [Example 140, N-(5-(6-isopropylimidazo[1,2-b]pyridazin-2-yl)-2-(trifluoromethyl)phenyl)pivalamide]
9060 | 260 | 3000 to 30000 | < 300 | < 300 | CC(C)(C)C(=O)Nc1cc(-c2cn3nc(-c4ccccn4)ccc3n2)ccc1C(F)(F)F [Example 141, N-(5-(6-(pyridin-2-yl)imidazo[1,2-b]pyridazin-2-yl)-2-(trifluoromethyl)phenyl)pivalamide]
